Experimental data published in US4349667A, “Aminoglycoside antibiotic G-367-2” (Toyo Jozo Kabushiki Kaisha, priority 1979, dated 1982).
Converted amounts (≈) assume the structure as drawn.

Experiments:
Assay type in all cases: cell-based
[1] = tested on: Pseudomonas aeruginosa 2512; experiment: antimicrobial spectrum (MIC) by agar dilution method; conditions: read-out: minimum inhibitory concentration, MIC
From the text: (§1) The antimicrobial spectrum (minimum inhibitory concentration, MIC) of G-367-2 by agar dilution method is as follows: […]

[2] = tested on: Escherichia coli W3630 RGN14; experiment: as above; conditions: W3630RGN14, read-out: minimum inhibitory concentration, MIC
From the text: as §1

[3] = tested on: Salmonella enteritidis Gartner; experiment: as above; conditions: Salmonella enterica, read-out: minimum inhibitory concentration, MIC
From the text: as §1

[4] = tested on: Pseudomonas aeruginosa ML4561 Rms166; experiment: as above; conditions: ML4561RMS166, read-out: minimum inhibitory concentration, MIC
From the text: as §1

[5] = tested on: Enterobacter cloacae GN336; experiment: as above; conditions: read-out: minimum inhibitory concentration, MIC
From the text: as §1

[6] = tested on: Citrobacter freundii GN346; experiment: as above; conditions: GN346, read-out: minimum inhibitory concentration, MIC
From the text: as §1

[7] = tested on: Escherichia coli W3630; experiment: as above; conditions: read-out: minimum inhibitory concentration, MIC
From the text: as §1

[8] = tested on: Pseudomonas maltophilia 1850; experiment: as above; conditions: Stenotrophomonas maltophilia, read-out: minimum inhibitory concentration, MIC
From the text: as §1

[9] = tested on: Bacillus subtilis ATCC 6633; experiment: as above; conditions: ATCC6633, read-out: minimum inhibitory concentration, MIC
From the text: as §1

[10] = tested on: Pseudomonas aeruginosa ML4561 RP4; experiment: as above; conditions: ML4561RP4, read-out: minimum inhibitory concentration, MIC
From the text: as §1

[11] = tested on: Proteus morganii 0239; experiment: as above; conditions: Morganella morganii, read-out: minimum inhibitory concentration, MIC
From the text: as §1

[12] = tested on: Klebsiella pneumonia ATC 10031; experiment: as above; conditions: Klebsiella pneumoniae, ATC10031, read-out: minimum inhibitory concentration, MIC
From the text: as §1

[13] = tested on: Streptococcus pyogenes N.Y.5; experiment: as above; conditions: read-out: minimum inhibitory concentration, MIC
From the text: as §1

[14] = tested on: Serratia marcescens; experiment: as above; conditions: read-out: minimum inhibitory concentration, MIC
From the text: as §1

[15] = tested on: Shigella sonnei E33; experiment: as above; conditions: read-out: minimum inhibitory concentration, MIC
From the text: as §1

[16] = tested on: Pseudomonas aeruginosa 1946; experiment: as above; conditions: read-out: minimum inhibitory concentration, MIC
From the text: as §1

[17] = tested on: Escherichia coli NIHJ-JC2; experiment: as above; conditions: NIHJJC2, read-out: minimum inhibitory concentration, MIC
From the text: as §1

[18] = tested on: Pseudomonas aeruginosa ML4561 Rms164-1; experiment: as above; conditions: ML4561RMS1641, read-out: minimum inhibitory concentration, MIC
From the text: as §1

[19] = tested on: Enterobacter aerogenes 0655; experiment: as above; conditions: Klebsiella aerogenes, read-out: minimum inhibitory concentration, MIC
From the text: as §1

[20] = tested on: Pseudomonas aeruginosa IAM1095; experiment: as above; conditions: read-out: minimum inhibitory concentration, MIC
From the text: as §1

[21] = tested on: Pseudomonas putida 1842; experiment: as above; conditions: read-out: minimum inhibitory concentration, MIC
From the text: as §1

[22] = tested on: Proteus rettgeri ACR; experiment: as above; conditions: Providencia rettgeri, read-out: minimum inhibitory concentration, MIC
From the text: as §1

[23] = tested on: Staphylococcus aureus ATCC 6538P; experiment: as above; conditions: ATCC6538P, read-out: minimum inhibitory concentration, MIC
From the text: as §1

[24] = tested on: Pseudomonas aeruginosa ML4561; experiment: as above; conditions: ML4561, read-out: minimum inhibitory concentration, MIC
From the text: as §1

[25] = tested on: Staphylococcus aureus MS 27; experiment: as above; conditions: MS27, read-out: minimum inhibitory concentration, MIC
From the text: as §1

[26] = tested on: Staphylococcus epidermidis sp-al-1; experiment: as above; conditions: SPAL1, read-out: minimum inhibitory concentration, MIC
From the text: as §1

[27] = tested on: Staphylococcus aureus 0119; experiment: as above; conditions: read-out: minimum inhibitory concentration, MIC
From the text: as §1

[28] = tested on: Gram negative bacteria; experiment: antibacterial effect against Gram negative bacteria
From the text: as §1

With `CNC1C(O)C(OC2C(N)CC(N)C(OC3OC(CN)=CCC3N)C2O)OCC1(C)O` (stereo not shown) [G-367-2] the MIC [1] was > 100 mg/L, the MIC [2] was 1.6 mg/L (≈ 3.58 µM) and the MIC [3] was 3.1 mg/L (≈ 6.93 µM). The MIC [4] was > 100 mg/L, the MIC [5] was 1.6 mg/L (≈ 3.58 µM) and the MIC [6] was 3.1 mg/L (≈ 6.93 µM). For the same compound, the MIC [7] was 1.6 mg/L (≈ 3.58 µM), the MIC [8] was > 100 mg/L and the MIC [9] was 1.6 mg/L (≈ 3.58 µM). For the same compound, the MIC [10] was 6.3 mg/L (≈ 14.1 µM), the MIC [11] was 6.3 mg/L (≈ 14.1 µM) and the MIC [12] was 1.6 mg/L (≈ 3.58 µM). The MIC [13] was 6.3 mg/L (≈ 14.1 µM), the MIC [14] was 50 mg/L (≈ 112 µM) and the MIC [15] was 3.1 mg/L (≈ 6.93 µM). For the same compound, the MIC [16] was > 100 mg/L, the MIC [17] was 3.1 mg/L (≈ 6.93 µM) and the MIC [18] was 50 mg/L (≈ 112 µM). For the same compound, the MIC [19] was 1.6 mg/L (≈ 3.58 µM), the MIC [20] was 25 mg/L (≈ 55.9 µM) and the MIC [21] was > 100 mg/L. For the same compound, the MIC [22] was 3.1 mg/L (≈ 6.93 µM), the MIC [23] was 12.5 mg/L (≈ 27.9 µM) and the MIC [24] was 125 mg/L (≈ 279 µM). It also gave an MIC [25] of 12.5 mg/L (≈ 27.9 µM), an MIC [26] of 1.6 mg/L (≈ 3.58 µM) and an MIC [27] of 12.5 mg/L (≈ 27.9 µM). The antibacterial effect [28] was “strong antibacterial effect”.
